Results reported in US10870647B2, “Imidazopyridine derivative, method for preparing same, and pharmaceutical composition containing same as active ingredient for preventing or treating cancer” (DAEGU-GYEONGBUK MEDICAL INNOVATION FOUNDATION, priority 2016, dated 2020).

What was measured:
Assay in all cases: Kinase selectivity, scanMAX Kinase assay panel (DiscoverX), % control at 1 uM
Type in all cases: binding
[1] = target: T1, scanMAX Kinase assay panel (Homo sapiens, UniProt P08922); conditions: ROS1; 1 uM; read-out: Percent Control (%)
T1 construct: purchased DiscoverX
T1 sequence (P08922 28-2347): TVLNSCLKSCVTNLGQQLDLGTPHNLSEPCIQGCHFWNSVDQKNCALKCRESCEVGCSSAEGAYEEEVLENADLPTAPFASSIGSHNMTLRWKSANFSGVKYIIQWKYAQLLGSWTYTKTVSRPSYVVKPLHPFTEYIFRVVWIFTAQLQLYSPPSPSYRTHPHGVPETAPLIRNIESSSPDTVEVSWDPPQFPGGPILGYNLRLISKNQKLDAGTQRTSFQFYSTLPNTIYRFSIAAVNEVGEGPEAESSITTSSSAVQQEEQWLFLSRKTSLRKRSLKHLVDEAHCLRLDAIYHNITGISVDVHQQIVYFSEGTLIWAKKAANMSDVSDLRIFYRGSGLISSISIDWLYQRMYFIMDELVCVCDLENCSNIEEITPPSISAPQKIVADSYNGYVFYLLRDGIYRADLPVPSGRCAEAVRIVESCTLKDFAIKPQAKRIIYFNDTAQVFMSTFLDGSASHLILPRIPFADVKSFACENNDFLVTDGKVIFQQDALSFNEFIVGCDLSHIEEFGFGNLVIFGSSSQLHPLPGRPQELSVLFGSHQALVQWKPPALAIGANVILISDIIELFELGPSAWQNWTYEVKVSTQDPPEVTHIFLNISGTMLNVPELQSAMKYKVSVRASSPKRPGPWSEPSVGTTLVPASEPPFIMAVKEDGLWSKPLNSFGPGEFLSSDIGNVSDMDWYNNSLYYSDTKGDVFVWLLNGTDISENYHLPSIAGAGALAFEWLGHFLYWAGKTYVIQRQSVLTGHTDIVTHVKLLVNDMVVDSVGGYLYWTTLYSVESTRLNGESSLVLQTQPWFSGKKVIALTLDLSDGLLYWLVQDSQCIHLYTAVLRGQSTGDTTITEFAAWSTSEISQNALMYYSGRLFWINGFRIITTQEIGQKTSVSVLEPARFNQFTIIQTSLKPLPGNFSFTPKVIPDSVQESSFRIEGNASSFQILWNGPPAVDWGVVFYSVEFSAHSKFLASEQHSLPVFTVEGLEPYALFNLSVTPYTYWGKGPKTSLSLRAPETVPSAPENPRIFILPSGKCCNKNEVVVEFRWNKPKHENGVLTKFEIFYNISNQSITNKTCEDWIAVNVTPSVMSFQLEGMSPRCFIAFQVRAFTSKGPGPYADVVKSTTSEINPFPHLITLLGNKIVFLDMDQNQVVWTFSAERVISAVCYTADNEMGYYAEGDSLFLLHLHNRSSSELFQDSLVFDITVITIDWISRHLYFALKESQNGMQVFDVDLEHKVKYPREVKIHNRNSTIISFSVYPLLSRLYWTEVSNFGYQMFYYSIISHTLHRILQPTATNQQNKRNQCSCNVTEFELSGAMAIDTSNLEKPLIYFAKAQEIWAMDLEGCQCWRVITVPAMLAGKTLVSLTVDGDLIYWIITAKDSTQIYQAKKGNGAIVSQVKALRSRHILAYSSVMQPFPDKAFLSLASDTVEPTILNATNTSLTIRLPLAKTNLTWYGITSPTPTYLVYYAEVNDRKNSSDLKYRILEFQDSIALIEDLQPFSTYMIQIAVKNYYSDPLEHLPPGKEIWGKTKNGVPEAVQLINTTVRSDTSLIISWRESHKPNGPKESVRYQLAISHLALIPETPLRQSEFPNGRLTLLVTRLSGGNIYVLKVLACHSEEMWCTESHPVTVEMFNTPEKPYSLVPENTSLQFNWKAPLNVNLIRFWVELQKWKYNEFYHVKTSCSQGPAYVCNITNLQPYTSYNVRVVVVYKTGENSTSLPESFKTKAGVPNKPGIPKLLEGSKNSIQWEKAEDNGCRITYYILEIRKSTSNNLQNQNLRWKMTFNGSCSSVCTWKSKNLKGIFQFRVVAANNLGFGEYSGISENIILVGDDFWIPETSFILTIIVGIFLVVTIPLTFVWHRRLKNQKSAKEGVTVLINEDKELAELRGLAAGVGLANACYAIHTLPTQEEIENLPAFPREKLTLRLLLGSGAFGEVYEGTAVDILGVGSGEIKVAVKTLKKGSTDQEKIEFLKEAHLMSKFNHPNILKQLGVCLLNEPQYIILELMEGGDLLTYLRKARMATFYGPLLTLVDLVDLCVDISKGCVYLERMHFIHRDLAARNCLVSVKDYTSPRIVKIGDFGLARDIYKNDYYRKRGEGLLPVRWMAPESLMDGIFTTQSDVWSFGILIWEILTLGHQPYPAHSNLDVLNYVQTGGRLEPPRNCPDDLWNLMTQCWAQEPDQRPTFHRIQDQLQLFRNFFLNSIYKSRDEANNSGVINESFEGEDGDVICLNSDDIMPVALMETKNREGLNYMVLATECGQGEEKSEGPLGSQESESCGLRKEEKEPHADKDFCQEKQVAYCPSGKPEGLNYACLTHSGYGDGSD
Method in brief: (§1)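 Compounds were tested at 1 uM in DMSO against each enzyme in the panel. Percent control was calculated as (compound − positive control)/(negative control − positive control) × 100, and a compound was scored active on a kinase when this value fell below 35.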

[2] = target: T2, scanMAX Kinase assay panel (Homo sapiens, UniProt O15530); conditions: PDPK1; 1 uM; read-out: Percent Control (%)
T2 construct: purchased DiscoverX
T2 sequence (O15530 1-556): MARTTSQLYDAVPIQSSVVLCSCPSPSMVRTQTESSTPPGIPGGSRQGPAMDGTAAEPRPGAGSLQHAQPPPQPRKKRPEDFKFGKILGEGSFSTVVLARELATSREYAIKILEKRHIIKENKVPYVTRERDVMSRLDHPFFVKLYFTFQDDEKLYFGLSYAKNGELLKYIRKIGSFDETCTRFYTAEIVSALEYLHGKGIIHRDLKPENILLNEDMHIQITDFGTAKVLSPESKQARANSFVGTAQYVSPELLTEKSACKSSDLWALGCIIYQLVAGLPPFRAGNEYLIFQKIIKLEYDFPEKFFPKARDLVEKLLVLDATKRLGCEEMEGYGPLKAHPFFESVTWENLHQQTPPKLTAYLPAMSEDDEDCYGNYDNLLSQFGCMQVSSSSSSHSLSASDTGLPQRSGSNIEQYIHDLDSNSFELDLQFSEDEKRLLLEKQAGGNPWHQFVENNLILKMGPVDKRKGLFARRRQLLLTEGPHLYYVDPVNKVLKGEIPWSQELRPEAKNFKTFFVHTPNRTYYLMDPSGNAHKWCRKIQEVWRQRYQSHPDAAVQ
Method in brief: as §1

[3] = target: T3, scanMAX Kinase assay panel (Homo sapiens, UniProt P25098); conditions: GRK2; 1 uM; read-out: Percent Control (%)
T3 construct: purchased DiscoverX
T3 sequence (P25098 1-689): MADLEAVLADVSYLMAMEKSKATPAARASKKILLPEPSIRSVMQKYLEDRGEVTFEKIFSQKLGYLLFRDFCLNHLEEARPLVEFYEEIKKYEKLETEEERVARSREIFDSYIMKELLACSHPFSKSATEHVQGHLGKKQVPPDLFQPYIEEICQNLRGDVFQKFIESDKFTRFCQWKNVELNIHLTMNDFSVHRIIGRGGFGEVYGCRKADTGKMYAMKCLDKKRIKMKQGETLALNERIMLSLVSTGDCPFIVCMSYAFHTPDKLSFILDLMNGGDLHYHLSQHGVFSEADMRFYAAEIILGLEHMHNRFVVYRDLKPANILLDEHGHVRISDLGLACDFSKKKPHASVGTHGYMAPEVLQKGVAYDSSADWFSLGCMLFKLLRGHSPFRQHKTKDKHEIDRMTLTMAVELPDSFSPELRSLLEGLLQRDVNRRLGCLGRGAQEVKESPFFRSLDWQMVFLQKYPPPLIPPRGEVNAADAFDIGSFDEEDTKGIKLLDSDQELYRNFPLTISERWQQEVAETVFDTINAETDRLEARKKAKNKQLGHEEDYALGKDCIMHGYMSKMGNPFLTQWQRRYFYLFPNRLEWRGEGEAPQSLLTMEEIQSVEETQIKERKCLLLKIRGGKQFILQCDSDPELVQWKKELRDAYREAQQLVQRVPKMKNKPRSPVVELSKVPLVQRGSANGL
Method in brief: as §1

[4] = target: T4, scanMAX Kinase assay panel (Homo sapiens, UniProt P43405); conditions: SYK; 1 uM; read-out: Percent Control (%)
T4 construct: purchased DiscoverX
Method in brief: as §1

[5] = target: T5, scanMAX Kinase assay panel (Homo sapiens, UniProt P35626); conditions: GRK3; 1 uM; read-out: Percent Control (%)
T5 construct: purchased DiscoverX
T5 sequence (P35626 1-688): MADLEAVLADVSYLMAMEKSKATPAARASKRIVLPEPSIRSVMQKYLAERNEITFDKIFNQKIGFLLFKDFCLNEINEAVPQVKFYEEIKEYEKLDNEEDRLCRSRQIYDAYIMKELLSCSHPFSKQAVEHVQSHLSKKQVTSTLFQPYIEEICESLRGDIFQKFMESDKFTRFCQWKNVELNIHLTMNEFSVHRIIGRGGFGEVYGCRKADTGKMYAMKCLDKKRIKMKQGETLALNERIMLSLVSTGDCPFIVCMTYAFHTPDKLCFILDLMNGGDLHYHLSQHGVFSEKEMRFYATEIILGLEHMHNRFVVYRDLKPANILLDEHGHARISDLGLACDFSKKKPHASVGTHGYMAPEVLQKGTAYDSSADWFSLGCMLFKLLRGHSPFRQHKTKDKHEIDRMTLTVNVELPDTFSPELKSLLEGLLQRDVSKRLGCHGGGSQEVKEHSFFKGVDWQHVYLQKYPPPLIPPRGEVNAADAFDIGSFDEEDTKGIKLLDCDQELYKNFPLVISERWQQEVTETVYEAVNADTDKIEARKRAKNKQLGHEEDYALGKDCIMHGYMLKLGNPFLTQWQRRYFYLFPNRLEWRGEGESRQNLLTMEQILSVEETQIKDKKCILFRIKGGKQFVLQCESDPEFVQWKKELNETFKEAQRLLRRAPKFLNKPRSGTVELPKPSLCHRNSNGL
Method in brief: as §1

For `Cc1ccc(C(=O)Nc2ccc(CN3CCN(C)CC3)c(C(F)(F)F)c2)cc1C#Cc1cnc2c(Nc3cnn(C)c3)cccn12` [Example 1, 4-methyl-3-((8-((1-methyl-1H-pyrazol-4-yl)amino)imidazo[1,2-a]pyridin-3-yl)ethynyl)-N-(4-((4-methylpiperazin-1-yl)methyl)-3-(trifluoromethyl)phenyl)benzamide], the remaining binding at 1 µM [1] was 39%, the remaining binding at 1 µM [2] was 50% and the remaining binding at 1 µM [3] was 84%. It also gave a remaining binding at 1 µM [4] of 2% and a remaining binding at 1 µM [5] of 82%.

In the case of `Cc1cn(-c2cc(NC(=O)c3ccc(C)c(C#Cc4cnc5c(Nc6cnn(C)c6)cccn45)c3)cc(C(F)(F)F)c2)cn1` [Example 12, 4-methyl-N-(3-(4-methyl-1H-imidazol-1-yl)-5-(trifluoromethyl)phenyl)-3-((8-((1-methyl-1H-pyrazol-4-yl)amino)imidazo[1,2-a]pyridin-3-yl)ethynyl)benzamide], the remaining binding at 1 µM [1] is reported as 51%, the remaining binding at 1 µM [2] is reported as 93% and the remaining binding at 1 µM [3] is reported as 100%. The remaining binding at 1 µM [4] was 12% and the remaining binding at 1 µM [5] was 100%.

For `Cc1ccc(NC(=O)C2(C(=O)Nc3ccc(F)cc3)CC2)cc1C#Cc1cnc2c(Nc3cnn(C(C)C)c3)cccn12` [Example 78], the remaining binding at 1 µM [1] was 92%, the remaining binding at 1 µM [2] was 92% and the remaining binding at 1 µM [3] was 96%. For the same compound, the remaining binding at 1 µM [4] was 78% and the remaining binding at 1 µM [5] was 97%.
